From patent US20070010484A1, “Method for treating or inhibiting the effects of injuries or diseases that result in neuronal degeneration and method for promoting neurogenesis” (YEDA RESEARCH AND DEVELOPMENT CO. LTD., priority 2003, published 2007) come the findings set out here.

Assay [1] has as its system PC12 cells. Put plainly: Neurite outgrowth assay in NGF-stimulated PC12 cells. Type of assay: cell-based, rat. The following applies: PC12 cells, NGF 10 ng/ml. The protocol: PC12 cell line: Rat pheochromocytoma (PC12) cells were cultured in DMEM containing 8% horse serum and either 8% FCS (culture medium) or 1% FCS (differentiation medium), and antibiotics. For assays of neurite outgrowth, the cells were plated (10^5 cell/well) on 13-mm glass coverslips, precoated with collagen (500 μg/ml) in 24-well plates. Neurite outgrowth assays: PC12 cells were cultured for 24-72 h while being stimulated with 10 ng/ml NGF, with or without CSPG-DSs. Cell morphology was visualized under a phase-contrast microscope and neurite lengths were measured using ImagePro. At least 200 cells were measured for each condition.

Assay [2] deals with retinal ganglion cells (RGCs). Put plainly: Experimental autoimmune uveitis (EAU), RGC survival. The assay is classed as in vivo. The following applies: R16-immunized Lewis rats, i.p. on days 3, 6, 9, 12 and 17; counted 3 weeks after immunization; mean±SD. The protocol: Induction of experimental autoimmune uveitis. To induce experimental autoimmune uveitis (EAU), Lewis rats were immunized with R16 (30 μg), a peptide derived from an ocular antigen IRBP emulsified in CFA containing 2.5 mg/ml M. tuberculosis. A total volume of 100 μl was injected s.c. into each rat at the root of the tail. Rats were then divided into three groups. On days 3, 6, 9, 12 and 17 after immunization the rats in the first group were injected i.p. with CSPG-DS (15 μg/rat), and rats in the second group were injected i.p. with methylprednisolone (MP. 30 mg/kg; Solu-Medrol, 125 mg/ml, Pharmacia & Upjohn, Puurs, Belgium). Rats in third group were left untreated.

Assay [3] deals with PC12 cells. Put plainly: LPA-induced neurite retraction in differentiated PC12 cells. The assay is classed as cell-based, rat. The following applies: NGF-differentiated PC12 cells, LPA 1 μg/ml, 20 min. The protocol:
PC12 cell line: Rat pheochromocytoma (PC12) cells were cultured in DMEM containing 8% horse serum and either 8% FCS (culture medium) or 1% FCS (differentiation medium), and antibiotics. For assays of neurite outgrowth, the cells were plated (10^5 cell/well) on 13-mm glass coverslips, precoated with collagen (500 μg/ml) in 24-well plates. Treatment of PC12 cells with lysophosphatidic acid (LPA). PC12 cells were placed and were differentiated for 3 days in the presence of 100 ng/ml NGF, in collagen-precoated culture dishes (Corning). […] The cells were then fixed with 4% paraformaldehyde (PFA) and analyzed by Nomarski microscopy. The longest neurite of each cell was measured and the results are expressed as their mean±SEM.

As to `CC(=O)N[C@H]1C(O)O[C@H](CO)[C@H](O)[C@@H]1O[C@@H]1OC(C(=O)O)=C[C@H](O)[C@H]1O` (stereo partly drawn) [Di-0S, 2-acetamido-2-deoxy-3-O-(β-D-gluco-4-enepyranosyluronic acid)-D-galactose], the “effect on neurite outgrowth” value in the assay on PC12 cells [1] is reported as “no effect”.
On to `C[C@H]1C[C@@H]2[C@H]([C@@H](O)C[C@@]3(C)[C@H]2CC[C@]3(O)C(=O)COC(=O)CCC(=O)[O-])[C@@]2(C)C=CC(=O)C=C12.[Na+]` [MP, reference compound], for which the “RGC loss relative to normal rats” value in assay [2] was 59±1.6%.
For “lysophosphatidic acid [LPA, reference compound]”, in the assay with PC12 cells [3], the “neurite collapse by LPA alone” value is listed as “induced neurite collapse”.
